Reference: patent publication US20020168327A1, “Treatment of dandruff” (Unilever Home & Personal Care USA, Division of Conopco, Inc., priority 2001, published 2002)
Values joined by “and” are separate entries in the source; they are usually repeats but may differ in a detail not shown here. Equal entries are not always repeated.

What was measured:
[1] = In vitro skin penetration study, Franz diffusion cells, radiolabelled shampoo; type: in vitro ADME, human; conditions: 6-fold diluted shampoo, one minute contact then washed off; 3H label; p<0.05
Description: Radiolabelled formulations were prepared using formulations spiked with either ^3H Lysine or ^3H glyceryl trioleate in sunflower seed oil. The total balance of each nutrient was brought up to 0.01% by weight using non-labelled cold material. Excised human full thickness skin was obtained and placed in between the two compartments of Franz diffusion cells. The skin is maintained by filling the receptor chamber of the cell with phosphate buffered saline with the cells placed in a water bath at 37° C. to maintain a surface skin tissue of about 32° C. […] The experimental procedure was as follows:
6-fold diluted shampoo was applied to the skin, left for one minute and washed off. The skin was then separated into 3:
remainder of the epidermis (viable) is then removed using heat separation (identified as the epidermal section)
Each of these layers was analysed for radioactivity and the amount of material penetrated calculated.
Using the in-vitro skin penetration studies, the amount of penetrated material can be quantified as a snap shot in time. From the skin sectioning process, the location of the penetrant at the particular point in time can be measured.

[2] = system: ceramide levels in stratum corneum; experiment: Ceramide production in skin: test products applied to the volar forearm for four weeks, stratum corneum tape stripping; type: in vivo, human; conditions: responder subset of subjects; 1.0% of each active in ethanol/propylene glycol; twice daily for four weeks on volar forearm
Description: Tests on the ability of compositions to increase ceramide production in skin were carried out. The formulation pairs tested were: 1.0% tetraacetyl phytosphingosine (TAPS) vs Vehicle 1.0% TAPS+1.0% juniperic acid+1.0% linoleic acid vs Vehicle. Vehicle=ethanol/propylene glycol (1:1) plus 0.2% by weight Glydant Plus™. […] The studies were conducted as double-blind paired comparisons, with treatment assignments randomized. Subjects first completed a four-day washout phase. During the four-week application phase, test products were applied twice daily to the volar surface of the forearms, using dropper bottles to deliver 0.1 ml of test product to each site; each subject applied a test formulation to one site and the vehicle formulation to the adjacent site. After four weeks of application, samples of stratum corneum were obtained by tape stripping. A subset of subjects who responded to the treatments as expected, with a significant increase in ceramide levels, data from subjects showing increased ceramides was broken out. In each case, responder subjects represented a cross-section of the whole panel; they were not predominantly of one sex or age group. […] Increases were seen across all ceramide types. The increases for ceramides 1 and 2 were dramatically higher than for the other ceramide types.

Compound | skin penetration (skin layers reached) [1] | mean increase in ceramide levels compared with vehicle [2]
NCCCC[C@H](N)C(=O)O [lysine] | penetrate not only into the stratum corneum but also deeper into the epidermis and dermis | –
tetraacetyl phytosphingosine [TAPS] | – | 30% and 25%
